Literature values, collected in patent US20080095831A1, “TOPICAL FORMULATION OF […] […] COMPOSITION FOR PERCUTANEOUS ABSORPTION OF […] ACTIVE AGENT” (priority 2006, published 2008).
Counter-ions that a name gives are not always drawn.

SMILES	solubility in water (in words)	other results
CC(=O)[C@H]1CC[C@H]2[C@@H]3CCC4=CC(=O)CC[C@]4(C)[C@H]3CC[C@]12C [Progesterone]	insoluble	
CCCCC(C)(O)C/C=C/[C@H]1[C@H](O)CC(=O)[C@@H]1CCCCCCC(=O)OC (mixture of isomers) [Misoprostol]	water-soluble	
Clc1cccc(Cl)c1N=C1NCCN1 [clonidine hydrochloride]	freely soluble	
NC(=O)c1cccnc1 [nicotinamide]	freely soluble	
CC/C(=C(\c1ccccc1)c1ccc(OCCN(C)C)cc1)c1ccccc1 [Tamoxifen citrate]		collagen production (keloid cells): decrease; keloid fibroblast production (keloid cells): inhibit; effect on keloid cells (keloid cells; concentration of about 0.01%): deadly effect
O=[N+]([O-])O[C@H]1CO[C@H]2[C@@H]1OC[C@H]2O[N+](=O)[O-] [Isosorbide dinitrate]	sparingly soluble	
CN(C)CCC=C1c2ccccc2CCc2ccccc21 [Amitriptline]	freely soluble	
